# Reference: publication PMC5684143, “New melanocortin-like peptide of E. coli can suppress inflammation via the mammalian melanocortin-1 receptor (MC1R): possible endocrine-like function for microbes of the gut” (NPJ Biofilms and Microbiomes, 2017)
# “And” between values parts separate entries of the source, which are not always exact repeats. Identical values can stand only once.
# Assays:
# [1] = tested on: RAW 264.7 cells; test: HMGB1-induced TNF release by RAW 264.7 macrophage-like cells; type: cell-based, murine
# Protocol: Fig. 1 MECO-1 attenuates HMGB1-induced TNF release by macrophages in culture. Murine macrophage-like RAW 264.7 cells were incubated for up to 24 h with purified recombinant HMGB1 (0.1 mg/ml) in the absence or presence of MECO-1 (Panel a), or alpha-MSH (Panel b), at 10^−10 and 10^−12 M. The levels of TNF in the culture medium were determined by ELISA and expressed as mean ± SEM of two independent experiments (in duplicate). *p < 0.05, **p < 0.01 vs. control (“HMGB1 alone”). […] In panels c and d, cells were incubated with HMGB1 for 6 h with or without MECO-1 or alpha-MSH (10^−16–10^−6 M). Data represent mean ± SEM of three independent experiments performed in duplicate. With 10^−14 M peptide, results were significant at *p < 0.05, and at 10^−12 M or more were typically **p < 0.01. In our experiments, at concentrations of MECO-1, alpha-MSH, and ACTH of around 1 nM and higher, dose response curves often reverse direction, i.e., turn upward. The reversal is more clearly seen in Fig. 2. The mechanism of the reversal is not known. (Desensitization, receptor inactivation, receptor internalization, and dissociation of dimeric receptors are all plausible candidates.) As a result, the shape of the lower part of the curve and the actual inflection point may vary from experiment to experiment. This feature may be missed when results of several experiments are combined
# Murine macrophage-like RAW 264.7 cells were obtained from American Type Culture Collection, and were grown in Dulbecco’s Modified Eagle’s Medium (DMEM, Life Technologies) containing 10% (vol/vol) heat-inactivated fetal bovine serum (FBS, Hyclone Lab. Inc.), penicillin 100 U/ml, and streptomycin 100 μg/ml (BioWhittaker Inc.). Cells were suspended in medium and incubated in 24-well or 48-well tissue-culture plates overnight in a humidified incubator (37 °C, 5% CO2). Growth medium was removed and replaced by Opti-MEM I serum-free medium (Life Technologies) overnight. In the experiments, cell monolayers were stimulated with HMGB1 or LPS, in the absence or presence of MECO-1 or alpha-MSH; cell-free supernatants were assayed for TNF by ELISA or HMGB1 by western blotting.
# (§1) Concentrations of TNF and IL-6 were each determined using a commercially available enzyme-linked immunosorbent assay (ELISA) kit (R&D System Inc.) as previously described.[34] The levels of TNF or IL-6 were calculated with reference to standard curves.
# Fig. 3 Antibody to MC1R blocks suppressant effect of MECO-1 and alpha-MSH. Murine macrophage-like RAW 264.7 cells were pretreated with specific antibodies (“anti-MC1R Ab”) against melanocortin-1 receptor (MC1R) for 10 min prior to addition of HMGB1 in the absence or presence of MECO-1 or alpha-MSH at 10^−12 M. At 6 h, the TNF content of the cell-free medium was determined by ELISA, and expressed as mean ± SEM of two independent experiments performed in duplicate. ACTH at the same concentration gave results that were indistinguishable from those of alpha-MSH and MECO-1 (data not shown)
# [2] = tested on: human peripheral blood mononuclear cells (PBMC); test: HMGB1-induced TNF release by human PBMC-derived macrophages; type: cell-based; conditions: differentiated human macrophages; HMGB1 6 hours; ELISA; three independent experiments in duplicate
# Protocol: Human PBMC were isolated by density gradient through Ficoll-Paque^TM PLUS centrifugation (Amersham Pharmacia Biotech), and suspended in RPMI 1640 containing 10% (vol/vol) heat-inactivated human serum (BioWhittaker Inc.), penicillin 100 U/ml, and streptomycin 100 μg/ml, and incubated at 37 °C in a humidified incubator with 5% CO2 atmosphere overnight. Non-adherent cells were discarded. Adherent monocytes were washed twice with PBS and were then suspended in 12-well and 24-well tissue culture plates and incubated in the same medium but now enriched with 2.5 ng/ml macrophage colony-stimulating factor for 5–7 days.[33] […]
# as §1
# Human peripheral blood mononuclear cells (PBMC) were isolated by density gradient centrifugation through Ficoll-PaqueTM PLUS, and cultured for 5-7 days in medium containing macrophage colony-stimulating factor (2.5 ng/ml). […] The content of TNF in the cell-free medium was determined by ELISA and expressed as mean ± SEM of three independent experiments performed in duplicate. *p< 0.05, **p< 0.01 vs. control (=HMGB1 alone without added melanocortin peptide).
# [3] = tested on: RAW 264.7 cells; test: Cyclic-AMP production in RAW 264.7 cells; type: cell-based, murine; conditions: 30 min, 37 °C, 1 mM IBMX, four experiments per peptide, each value from separate experiment(s)
# Protocol: RAW 264.7 cells were grown to confluence in culture plates, harvested by classical methods, and then seeded onto 48-well plates (1 × 10^6/ml). Cells were incubated with peptide at 37 °C in Opti-MEM I serum-free medium containing 1 mM 3-isobutyl-1-methylxanthine. At 30 min, cells were lysed in the original wells. The lysates were extracted from the wells, and cyclic-AMP measurements carried out using the Biotrak kit (cyclic-AMP Biotrak Enzymeimmunoassay System, Amersham Biosciences) including a standard cyclic-AMP curve as recommended by the suppliers.[35]
# RAW 264.7 cells were incubated with peptides for 30 minutes at 37 degrees. Cell lysates were extracted and c-AMP measurements carried out using a commercial kit [c-AMP biotrack-immunoassay system, Amersham Biosciences] with a c-AMP standard curve as recommended by the suppliers. […] The only experiment with ACTH is shown above. (Effects of LPS at 4 nanograms per ml. or of HMGB1 at 0.1 µg. per ml. on ligand-stimulated c-AMP accumulation were quite modest and inconsistent). […]
substance,measurement,setting,value
alpha-melanocyte-stimulating hormone [alpha-MSH],peptide concentration at which significant effects on HMGB1-induced TNF release were noted,"[1]; 6 h incubation, dose range 10^−16–10^−6 M, three independent experiments in duplicate, p < 0.05",10^−14 M
same,inhibition of HMGB-1-induced TNF release,"[1]; Fig. 2d dose response, RAW 264.7 cells",up to 80%
same,TNF accumulation with HMGB1 on co-incubation with peptide,[1]; peptide 10^−12–10^−8 M,substantially reduced
same,HMGB-1-stimulated TNF-alpha release,"[1]; peptide at 1 pM and 100 pM, 4 to 16 h after HMGB-1, HMGB1 0.1 mg/ml, ELISA, two independent experiments in duplicate",blunted substantially
same,attenuation of HMGB-1-induced TNF release,[2],significant effects in the picomolar range
same,peptide concentration at which statistically significant stimulation of cAMP was noted (single experiments),[3],10^-9 M and 10^-10 M
